Reference: patent US8361728B2, “Method for diagnosis of glutamate dehydrogenase disorders” (priority 2008, dated 2013)
Several values for one entry are separate records, joined by “and”; a condition that tells them apart may be missing. Equal entries are not always repeated. Where two headings read alike, the source gives them in different places.

Experiments:
hGDH2 [1] = target: T1, hGDH2 (Homo sapiens, UniProt P49448); test: GTP inhibition of purified recombinant GDH activity; assay type: biochemical
T1 construct: made in house; host or cells: Sf21 insect cells, baculovirus
T1 sequence (P49448 54-558): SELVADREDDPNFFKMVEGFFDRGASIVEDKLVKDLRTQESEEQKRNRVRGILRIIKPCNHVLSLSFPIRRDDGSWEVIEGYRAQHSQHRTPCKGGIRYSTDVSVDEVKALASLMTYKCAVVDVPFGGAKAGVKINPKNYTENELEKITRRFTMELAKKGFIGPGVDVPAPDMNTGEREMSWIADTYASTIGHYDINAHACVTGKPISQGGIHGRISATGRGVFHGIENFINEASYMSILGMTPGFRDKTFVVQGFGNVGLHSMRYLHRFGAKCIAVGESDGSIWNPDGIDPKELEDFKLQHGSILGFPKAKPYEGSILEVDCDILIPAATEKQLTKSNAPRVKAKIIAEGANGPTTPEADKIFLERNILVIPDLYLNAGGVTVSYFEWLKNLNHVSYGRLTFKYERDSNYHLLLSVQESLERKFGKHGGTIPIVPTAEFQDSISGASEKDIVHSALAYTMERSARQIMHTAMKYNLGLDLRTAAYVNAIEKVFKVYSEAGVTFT
Procedure: (§1) To investigate whether the Ser445Ala change modified the protein function of hGDH2, an Ala445-hGDH2 variant was obtained in recombinant form by expressing in Sf21 cells using the baculovirus expression system a GLUD2 cDNA with G instead of 1492T. […] The specific basal activity of the variant was concentration-dependent (FIGS. 6&7), as also previously shown for hGDH2 but not for hGDH1. At enzyme concentrations of about 5 μg/ml, the basal specific activity of the variant approached that of hGDH1 (FIGS. 6 & 7), but in contrast to the latter this activity was resistant to suppression by GTP (Table 3).
(§2) Production and Purification of Recombinant hGDHs.

hGDH2 [2] = target: T1, hGDH2; conditions: Zaganas and Plaitakis, 2002; read-out: IC50 (GTP inhibition); cited from earlier work
Ala445-hGDH2 [3] = target: T2, Ala445-hGDH2 (Homo sapiens, UniProt P49448, S498A); test: GTP inhibition of purified recombinant GDH activity; assay type: biochemical; design: made in house; host or cells: Sf21 insect cells, baculovirus
T2 sequence (P49448 54-558 S498A): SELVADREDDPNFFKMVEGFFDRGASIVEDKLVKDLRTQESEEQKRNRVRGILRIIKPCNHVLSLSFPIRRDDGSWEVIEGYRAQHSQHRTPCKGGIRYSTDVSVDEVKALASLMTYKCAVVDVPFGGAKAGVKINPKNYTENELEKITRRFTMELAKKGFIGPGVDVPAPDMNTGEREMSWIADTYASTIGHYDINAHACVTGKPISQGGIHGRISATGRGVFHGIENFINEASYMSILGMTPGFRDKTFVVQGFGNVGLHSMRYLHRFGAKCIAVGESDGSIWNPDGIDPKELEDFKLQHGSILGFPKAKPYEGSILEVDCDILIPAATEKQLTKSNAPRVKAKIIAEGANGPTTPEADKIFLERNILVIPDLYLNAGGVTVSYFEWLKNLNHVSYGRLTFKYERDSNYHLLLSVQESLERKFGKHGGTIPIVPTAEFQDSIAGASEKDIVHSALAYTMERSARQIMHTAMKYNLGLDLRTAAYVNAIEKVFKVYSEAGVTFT
Procedure: as §1, §2

hGDH1 [4] = target: T3, hGDH1 (Homo sapiens, UniProt P00367); test: as above; assay type: biochemical; design: made in house; host or cells: Sf21 insect cells, baculovirus
T3 sequence (P00367 54-558): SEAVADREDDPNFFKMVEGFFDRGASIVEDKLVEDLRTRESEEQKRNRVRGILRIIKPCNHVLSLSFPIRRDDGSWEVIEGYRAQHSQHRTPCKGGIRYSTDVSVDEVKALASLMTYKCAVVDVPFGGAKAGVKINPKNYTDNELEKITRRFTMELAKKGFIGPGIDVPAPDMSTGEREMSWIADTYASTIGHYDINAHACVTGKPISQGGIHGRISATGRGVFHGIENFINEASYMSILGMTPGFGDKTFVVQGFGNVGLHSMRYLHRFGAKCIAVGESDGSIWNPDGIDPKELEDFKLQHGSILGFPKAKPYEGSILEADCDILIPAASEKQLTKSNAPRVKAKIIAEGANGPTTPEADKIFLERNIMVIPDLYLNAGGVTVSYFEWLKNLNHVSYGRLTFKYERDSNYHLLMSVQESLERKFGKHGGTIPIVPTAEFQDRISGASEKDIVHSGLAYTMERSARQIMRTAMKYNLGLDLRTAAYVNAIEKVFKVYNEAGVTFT
Procedure: as §1, §2

hGDH1 [5] = target: T3, hGDH1; design: made in house; host or cells: Sf21 insect cells, baculovirus; conditions: Zaganas and Plaitakis, 2002; read-out: IC50 (GTP inhibition); cited from earlier work
wild-type hGDH1 = target: T4, wild-type hGDH1 (Homo sapiens, UniProt P00367); test: Inhibition of purified recombinant GDH by female steroidal hormones; assay type: biochemical
T4 construct: made in house; host or cells: Sf21 insect cells, baculovirus
T4 sequence (P00367 54-558): as above
Procedure: (§3) For this, a study was performed on the interaction of estrogens with the hGDH2 variant as well as with the wild type-hGDH2 and hGDH1 obtained by expression of the corresponding cDNAs in Sf21 cells.
(§4) Production and Purification of Recombinant hGDHs. […] The produced recombinant hGDHs were purified from Sf21 cell extracts using a previously described method that involves Ammonium Sulfate fractionation, hydrophobic interaction and hydroxyapatite chromatography. […] All hGDH proteins studied were produced and analyzed in parallel.
(§5) Enzyme Assays. GDH activity was assayed spectrophotometrically at 25° C. in the direction of reductive amination of α-ketoglutarate. Initial rates (enzyme velocity at the interval during which the change in absorbance maintained linearity) were recorded. […] Regulation of the human recombinant GDHs by allosteric stimulators was studied by adding to the reaction ADP or L-leucine in various concentrations. Inhibition by GTP was studied by adding this compound in various concentrations to the reaction either in the absence of allosteric modulators or in the presence of 0.1 mM or 1.0 mM ADP. For the heat inactivation studies, samples containing about 50 μg/ml purified enzyme were incubated at 47.5° C. Aliquots were removed at specified time intervals and assayed immediately for enzyme activity.
(§6) Purification of Recombinant Wild-Type and Mutant hGDHs—Using extracts of Sf21 cells expressing wild-type hGDH1 or hGDH2, or the Arg443Ser hGDH1 mutant were purified to homogeneity using a previously described procedure (Kanavouras et al., 2007). Also, as described below, the Arg443Ser/Gly456Ala double mutant and the Ser409Arg/Asp single mutants of hGDH1 and the Ser445Ala mutant of hGDH2 were studied after they were purified to homogeneity using extracts of Sf21 cells expressing these proteins.

wild-type hGDH2 = target: T5, wild-type hGDH2 (Homo sapiens, UniProt P49448); test: as above; assay type: biochemical; conditions: for relative inhibition of hGDH2 versus hGDH1: in words
T5 construct: made in house; host or cells: Sf21 insect cells, baculovirus
T5 sequence (P49448 54-558): as the sequence (P49448 54-558) above
Procedure: as §3, §4, §5, §6

[6] = target: T6, Ser443-hGDH1 (Arg443Ser hGDH1 mutant) (Homo sapiens, UniProt P00367, R496S); test: as above; assay type: biochemical
T6 construct: made in house; host or cells: Sf21 insect cells
T6 sequence (P00367 54-558 R496S): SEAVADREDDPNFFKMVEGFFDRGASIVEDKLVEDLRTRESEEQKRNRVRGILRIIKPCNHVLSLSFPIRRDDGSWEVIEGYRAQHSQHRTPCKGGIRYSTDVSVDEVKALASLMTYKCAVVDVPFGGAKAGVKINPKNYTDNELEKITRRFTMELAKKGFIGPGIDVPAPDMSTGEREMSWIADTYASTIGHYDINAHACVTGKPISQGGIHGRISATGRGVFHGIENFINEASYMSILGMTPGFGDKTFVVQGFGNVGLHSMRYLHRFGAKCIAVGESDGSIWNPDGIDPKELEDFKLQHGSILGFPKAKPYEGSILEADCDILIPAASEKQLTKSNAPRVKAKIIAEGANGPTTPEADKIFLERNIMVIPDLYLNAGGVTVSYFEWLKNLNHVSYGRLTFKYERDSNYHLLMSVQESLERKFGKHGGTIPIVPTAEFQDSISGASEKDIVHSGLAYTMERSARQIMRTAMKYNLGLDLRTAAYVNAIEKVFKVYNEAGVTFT
Description: as §2
as §6, with “proteins. Enzyme recoveries and degree of purification of the final products were similar to those of the wild-type hGDH1 and hGDH2.” for “proteins.”
This was further tested by studying a double mutant of hGDH1 that, in addition to the Arg443Ser change, carries the Gly456Ala polymorphism that confers resistance to GTP. […] That substitution of Ser for Arg443 is responsible for the sensitivity of the wild-type hGDH2 to estrogens was confirmed by reverse mutagenesis experiments in which the Ser443 of hGDH2 was replaced by Arg.

Ala445-hGDH2 [7] = target: T2, Ala445-hGDH2
Procedure: as §4
as §5, with “GDH activity was assayed spectrophotometrically at 25° C. in the direction of reductive amination of α-ketoglutarate.” left out

Ser445-hGDH2 = Ser445-hGDH2 (Homo sapiens, UniProt P49448)
Sequence of Ser445-hGDH2 (P49448 54-558): as the sequence (P49448 54-558) above
Procedure: as §4
as §5, with “GDH activity was assayed spectrophotometrically at 25° C. in the direction of reductive amination of α-ketoglutarate.” left out

hGDH1 [8] = target: T3, hGDH1
Procedure: as §4
as §5, with “GDH activity was assayed spectrophotometrically at 25° C. in the direction of reductive amination of α-ketoglutarate.” left out

hGDH2 [9] = target: T1, hGDH2; test: Allosteric stimulation of recombinant GDH by ADP or L-leucine; assay type: biochemical; conditions: positive modulation
Procedure: as §4, §5

Ala445-hGDH2 [10] = target: T2, Ala445-hGDH2; test: as above; assay type: biochemical; design: made in house; host or cells: Sf21 insect cells, baculovirus; conditions: positive modulation
Procedure: as §4, §5

hGDH1 [11] = target: T3, hGDH1; test: as above; assay type: biochemical; design: made in house; host or cells: Sf21 insect cells, baculovirus; conditions: positive modulation
Procedure: as §4, §5

Ser445Ala hGDH2 variant = target: T7, Ser445Ala hGDH2 variant (Homo sapiens, UniProt P49448, S498A); test: Inhibition of purified recombinant GDH by estrogens; assay type: biochemical; conditions: baseline conditions (absence of allosteric effectors)
T7 construct: made in house; host or cells: Sf21 insect cells, baculovirus
T7 sequence (P49448 54-558 S498A): as the sequence (P49448 54-558 S498A) above
Procedure: as §3, §2

[12] = No ADP (baseline conditions), read-out: IC50

Structure (SMILES): Nc1nc2c(ncn2[C@@H]2O[C@H](COP(=O)(O)OP(=O)(O)OP(=O)(O)O)[C@@H](O)[C@H]2O)c(=O)[nH]1 [GTP]
- Hill Coefficient (hGDH2 [1]; 0.1 mM ADP): 1.06 ± 0.16
- IC50 (hGDH2 [1]; 0.1 mM ADP): 12.2 ± 2.65 µM
- Hill Coefficient (hGDH2 [1]; 1 mM ADP): 0.82 ± 0.11
- IC50 (hGDH2 [1]; 1 mM ADP): 204 ± 36.4 µM
- Hill Coefficient (hGDH2 [1]; No ADP): 0.72 ± 0.05
- IC50 (hGDH2 [1]; No ADP): 40.1 ± 4.46 µM
- IC50 (hGDH2 [2]): > 200 µM
- Hill Coefficient (Ala445-hGDH2 [3]; 0.1 mM ADP): 1.01 ± 0.09
- IC50 (Ala445-hGDH2 [3]; 0.1 mM ADP): 24.4 ± 2.62 µM
- Hill Coefficient (Ala445-hGDH2 [3]; 1 mM ADP): 0.71 ± 0.04
- IC50 (Ala445-hGDH2 [3]; 1 mM ADP): 258 ± 42.2 µM
- Hill Coefficient (Ala445-hGDH2 [3]; No ADP): 0.80 ± 0.05
- IC50 (Ala445-hGDH2 [3]; No ADP): 29.1 ± 4.48 µM
- Hill Coefficient (hGDH1 [4]; 0.1 mM ADP): 2.13 ± 0.15
- IC50 (hGDH1 [4]; 0.1 mM ADP): 1610 ± 20 nM
- Hill Coefficient (hGDH1 [4]; 1 mM ADP): 1.94 ± 0.07
- IC50 (hGDH1 [4]; 1 mM ADP): 18500 ± 490 nM
- Hill Coefficient (hGDH1 [4]; No ADP): 1.51 ± 0.07
- IC50 (hGDH1 [4]; No ADP): 310 ± 30 nM
- IC50 (hGDH1 [5]): 100 to 300 nM

Structure (SMILES): CC(=O)[C@H]1CC[C@H]2[C@@H]3CCC4=CC(=O)CC[C@]4(C)[C@H]3CC[C@]12C [Progesterone]
- IC50 (wild-type hGDH1; 0.1 mM ADP, read-out: IC50): 596 ± 50.1 µM
- IC50 (wild-type hGDH1; [12]): 219 ± 7.99 µM
- IC50 (wild-type hGDH2; 0.1 mM ADP): 392 ± 8.91 µM
- IC50 (wild-type hGDH2; No ADP (baseline conditions)): 12.3 ± 2.63 µM
- relative inhibition of hGDH2 versus hGDH1 (wild-type hGDH2): inhibited hGDH2 more strongly than hGDH
- relative inhibition of hGDH2 versus hGDH1 (wild-type hGDH2; listed as progesterone): inhibited hGDH2 more strongly than hGDH1
- IC50 ([6]; 0.1 mM ADP, read-out: IC50): 8620 ± 1230 nM

Structure (SMILES): C[C@]12CC[C@@H]3c4ccc(O)cc4CC[C@H]3[C@@H]1C[C@@H](O)[C@@H]2O [Oestriol]
- IC50 (wild-type hGDH1; 0.1 mM ADP, read-out: IC50): 316 ± 26.1 µM
- IC50 (wild-type hGDH1; [12]): 145 ± 18.8 µM
- IC50 (wild-type hGDH2; 0.1 mM ADP): 189 ± 17.9 µM
- IC50 (wild-type hGDH2; No ADP (baseline conditions)): 11.3 ± 0.74 µM
- relative inhibition of hGDH2 versus hGDH1 (wild-type hGDH2): inhibited hGDH2 more strongly than hGDH
- relative inhibition of hGDH2 versus hGDH1 (wild-type hGDH2; listed as oestriol): inhibited hGDH2 more strongly than hGDH1
- IC50 ([6]; 0.1 mM ADP, read-out: IC50): 2430 ± 50 nM

Structure (SMILES): O=C(O)CCC(=O)C(=O)O [α-Ketoglutarate]
- Km (Ala445-hGDH2 [7]; read-out: Km α-Ketoglutarate): 2.67 ± 0.31 mM
- Km (Ser445-hGDH2; read-out: Km α-Ketoglutarate): 2.07 ± 0.29 mM
- Km (hGDH1 [8]; read-out: Km α-Ketoglutarate): 2.01 ± 0.18 mM

Structure (SMILES): N[C@@H](CCC(=O)O)C(=O)O [Glutamate]
- Km (Ala445-hGDH2 [7]; read-out: Km Glutamate): 6.8 ± 1.9 mM
- Km (Ser445-hGDH2; read-out: Km Glutamate): 10.7 ± 1.77 mM
- Km (hGDH1 [8]; read-out: Km Glutamate): 12.4 ± 1.48 mM

Structure (SMILES): C[C@]12CC[C@@H]3c4ccc(O)cc4CC[C@H]3[C@@H]1CC[C@@H]2O [17 b-Estradiol, 17 beta-estradiol]
- IC50 (wild-type hGDH1; IC50, 0.1 mM ADP): 69.2 ± 1.3 µM
- IC50 (wild-type hGDH1; IC50, No ADP (baseline conditions)): 26.9 µM
- IC50 [6]: 2220 ± 760 nM

Structure (SMILES): CC(C)C[C@H](N)C(=O)O [L-leucine]
- EC50 (hGDH2 [9]; read-out: L-leucine SC50): 1010 ± 213 µM
- EC50 (Ala445-hGDH2 [10]; read-out: L-leucine SC50): 955 ± 45 µM
- EC50 (hGDH1 [11]; read-out: L-leucine SC50): 860 ± 139 µM

Structure (SMILES): Nc1ncnc2c1ncn2[C@@H]1O[C@H](COP(=O)(O)OP(=O)(O)O)[C@@H](O)[C@H]1O [ADP]
- EC50 (hGDH2 [9]; read-out: ADP SC50): 68.5 ± 2.3 µM
- EC50 (Ala445-hGDH2 [10]; read-out: ADP SC50): 58.2 ± 5.5 µM
- EC50 (hGDH1 [11]; read-out: ADP SC50): 22.4 ± 2.1 µM

Structure (SMILES): CC/C(=C(/CC)c1ccc(O)cc1)c1ccc(O)cc1 [DES, diethylstilbestrol]
- IC50 (wild-type hGDH1; 0.1 mM ADP, read-out: IC50): 7.07 ± 0.4 µM
- IC50 (wild-type hGDH1; [12]): 1.67 ± 0.02 µM
- IC50 (wild-type hGDH1; baseline conditions (absence of allosteric effectors), read-out: IC50±S.E.): 1.53 µM
- IC50 (wild-type hGDH2; 0.1 mM ADP): 1.05 ± 0.09 µM
- IC50 (wild-type hGDH2; No ADP (baseline conditions)): 0.094 µM and 0.09 µM
- fold higher sensitivity/affinity of hGDH2 than hGDH1 (wild-type hGDH2; baseline conditions, hGDH2 versus hGDH1): > 15 fold and ~18 fold
- effect of inhibitor on Km for α-ketoglutarate, NH3 or glutamate (wild-type hGDH2; inhibitory concentrations of DES, wild-type hGDH1 and hGDH2): not altered
- IC50 ([6]; 0.1 mM ADP, read-out: IC50): 510 ± 50 nM
- IC50 (Ser445Ala hGDH2 variant): 19 ± 3 nM
